Measured values from patent US12371426B2, “Pyridazine derivatives as SMARCA2/4 degraders” (Aurigene Discovery Technologies Limited, priority 2018, dated 2025).

Each compound was assayed on NCI-H929 cells (assay: Anti proliferative activity in NCI-H929 cell line by Cell Titer Glo assay). Settings: Homo sapiens, 72 h, 3 days compound incubation, CellTiter Glo, read-out: Anti-proliferative activity IC50 group (NCI-H929 cells).
Type: cell-based
Experimental: Determination of Anti Proliferative Activity of Compounds in NCI-H929 and NCI-H838 Cell Lines by Cell Titer Glo® (promega) assay:
NCI-H929 (ATCC CRL-9068) or NCI-H838 (ATCC CRL-5844) cells were seeded in 96 well plate flat black clear bottom plates (Corning, Cat. No 3904) using complete RPMI-1640 media. Next day, compounds listed in the present invention were added to cells from 10 mM stocks made in DMSO (Sigma Cat no. D2650). Each concentration of compound was tested in triplicate with DMSO concentration at a final percentage not exceeding 0.3 in the cells. After the compound incubation (3 days for H929 and 8 days for H838) assay was terminated using 50 μl of CellTiter Glo® reagent (Promega, Cat. no G7572). CellTiter Glo® Luminescent reagent determines the number of viable cells based on quantitation of ATP present which is an indicator of cell number and metabolic activity. Luminescence readings were taken in Victor-3 instrument. Percent inhibition of proliferation was calculated using formula, % inhibition=100−(luminescence value of test/luminescence value of DMSO control)*100. DMSO control (0%)=Cells in complete media with DMSO; blank=Media alone containing DMSO. IC50 was calculated using graph pad prism software.
Herein group “A” refers to IC50 value lower than 1 μM, “B” refers to IC50 value between 1-10 μM (both inclusive) and “C” refers to IC50 value higher than 10 μM or less than 50% activity at 10 μM.
`Cc1ncsc1-c1ccc(CNC(=O)[C@@H]2C[C@@H](O)CN2C(=O)[C@@H](NC(=O)COCCNC(=O)C2CCN(c3cc(-c4ccccc4O)nnc3N)CC2)C(C)(C)C)cc1` [Compound 1, 1-(3-amino-6-(2-hydroxyphenyl)pyridazin-4-yl)-N-(2-(2-(((S)-1-((2S,4R)-4-hydroxy-2-((4-(4-methylthiazol-5-yl)benzyl)carbamoyl)pyrrolidin-1-yl)-3,3-dimethyl-1-oxobutan-2-yl)amino)-2-oxoethoxy)ethyl)piperidine-4-carboxamide] was tested, and the IC50 was > 10 µM.
In the case of `Cc1ncsc1-c1ccc(CNC(=O)[C@@H]2C[C@@H](O)CN2C(=O)[C@@H](NC(=O)COCCOCCNC(=O)C2CCN(c3cc(-c4ccccc4O)nnc3N)CC2)C(C)(C)C)cc1` [Compound 2], the IC50 is reported as > 10 µM.
For `Cc1ncsc1-c1ccc(CNC(=O)[C@@H]2C[C@@H](O)CN2C(=O)[C@@H](NC(=O)COCCOCCOCCOCCNC(=O)C2CCN(c3cc(-c4ccccc4O)nnc3N)CC2)C(C)(C)C)cc1` [Compound 3], the IC50 was > 10 µM.
`Cc1ncsc1-c1ccc(CNC(=O)[C@@H]2C[C@@H](O)CN2C(=O)[C@@H](NC(=O)COCCOCCOCCNC(=O)C2CCN(c3cc(-c4ccccc4O)nnc3N)CC2)C(C)(C)C)cc1` [Compound 4] was tested, and the IC50 was > 10 µM.
With `Cc1ncsc1-c1ccc(CNC(=O)[C@@H]2C[C@@H](O)CN2C(=O)[C@@H](NC(=O)C2CCN(c3cc(-c4ccccc4O)nnc3N)CC2)C(C)(C)C)cc1` [Compound 5] the IC50 was > 10 µM.
In the case of `Nc1nnc(-c2ccccc2O)cc1N1CCC(C(=O)NCCOCC(=O)Nc2cccc3c2C(=O)N(C2CCC(=O)NC2=O)C3=O)CC1` (stereo not shown) [Compound 6], the IC50 is reported as > 10 µM.
For `Nc1nnc(-c2ccccc2O)cc1N1CCC(C(=O)NCCOCCOCCOCCOCC(=O)Nc2cccc3c2C(=O)N(C2CCC(=O)NC2=O)C3=O)CC1` (stereo not shown) [Compound 8], the IC50 was > 10 µM.
With `Nc1nnc(-c2ccccc2O)cc1N1CCC(C(=O)NCCOCCOCC(=O)Nc2cccc3c2C(=O)N(C2CCC(=O)NC2=O)C3=O)CC1` (stereo not shown) [Compound 9] the IC50 was > 10 µM.
For `Nc1nnc(-c2ccccc2O)cc1N1CCC(C(=O)NCCOCCOCCOCC(=O)Nc2cccc3c2CN(C2CCC(=O)NC2=O)C3=O)CC1` (stereo not shown) [Compound 12], the IC50 was > 10 µM.
For `Cc1ncsc1-c1ccc(CNC(=O)[C@@H]2C[C@@H](O)CN2C(=O)[C@@H](NC(=O)COCC(=O)NC2CCN(c3cc(-c4ccccc4O)nnc3N)CC2)C(C)(C)C)cc1` [Compound 14], the IC50 was > 10 µM.
`Nc1nnc(-c2ccccc2O)cc1N1CCC(NC(=O)COCC(=O)Nc2cccc3c2CN(C2CCC(=O)NC2=O)C3=O)CC1` (stereo not shown) [Compound 15] was tested, and the IC50 was > 10 µM.
In the case of `Nc1nnc(-c2ccccc2O)cc1N1CCC(NC(=O)COCC(=O)Nc2cccc3c2C(=O)N(C2CCC(=O)NC2=O)C3=O)CC1` (stereo not shown) [Compound 16], the IC50 is reported as > 10 µM.
In the case of `Nc1nnc(-c2ccccc2O)cc1N1CCC(NC(=O)CCCCCCC(=O)Nc2cccc3c2CN(C2CCC(=O)NC2=O)C3=O)CC1` (stereo not shown) [Compound 17], the IC50 is reported as > 10 µM.
For `Nc1nnc(-c2ccccc2O)cc1N1CCC(NC(=O)CCCCCCCCCC(=O)Nc2cccc3c2CN(C2CCC(=O)NC2=O)C3=O)CC1` (stereo not shown) [Compound 18], the IC50 was > 10 µM.
In the case of `Nc1nnc(-c2ccccc2O)cc1N1CCC(NC(=O)CCCCCCC(=O)Nc2cccc3c2C(=O)N(C2CCC(=O)NC2=O)C3=O)CC1` (stereo not shown) [Compound 19], the IC50 is reported as > 10 µM.
With `Cc1ncsc1-c1ccc(CNC(=O)[C@@H]2C[C@@H](O)CN2C(=O)[C@@H](NC(=O)CCCC(=O)NC2CCN(c3cc(-c4ccccc4O)nnc3N)CC2)C(C)(C)C)cc1` [Compound 20] the IC50 was > 10 µM.
For `Cc1ncsc1-c1ccc(CNC(=O)[C@@H]2C[C@@H](O)CN2C(=O)[C@@H](NC(=O)CCCCCCC(=O)NC2CCN(c3cc(-c4ccccc4O)nnc3N)CC2)C(C)(C)C)cc1` [Compound 21], the IC50 was > 10 µM.
`Cc1ncsc1-c1ccc(CNC(=O)[C@H]2C[C@H](O)CN2C(=O)[C@H](NC(=O)CCCCCCCCCC(=O)NC2CCN(c3cc(-c4ccccc4O)nnc3N)CC2)C(C)(C)C)cc1` [Compound 22] was tested, and the IC50 was > 10 µM.
An IC50 of 1 to 10 µM was found for `Cc1ncsc1-c1ccc([C@H](C)NC(=O)[C@@H]2C[C@@H](O)CN2C(=O)[C@@H](NC(=O)CCCCCCC(=O)NC2CCN(c3cc(-c4ccccc4O)nnc3N)CC2)C(C)(C)C)cc1` [Compound 23] in this work.
In the case of `Nc1nnc(-c2ccccc2O)cc1N1CCN(C(=O)CCCC(=O)Nc2cccc3c2CN(C2CCC(=O)NC2=O)C3=O)CC1` (stereo not shown) [Compound 25], the IC50 is reported as > 10 µM.
For `Nc1nnc(-c2ccccc2O)cc1N1CCN(C(=O)CCCCCCC(=O)Nc2cccc3c2CN(C2CCC(=O)NC2=O)C3=O)CC1` (stereo not shown) [Compound 26], the IC50 was > 10 µM.
With `Nc1nnc(-c2ccccc2O)cc1N1CCN(C(=O)CCCCCCCCCC(=O)Nc2cccc3c2CN(C2CCC(=O)NC2=O)C3=O)CC1` (stereo not shown) [Compound 27] the IC50 was > 10 µM.
`Nc1nnc(-c2ccccc2O)cc1N1CCN(C(=O)COCC(=O)Nc2cccc3c2CN(C2CCC(=O)NC2=O)C3=O)CC1` (stereo not shown) [Compound 28] was tested, and the IC50 was > 10 µM.
With `Nc1nnc(-c2ccccc2O)cc1N1CCN(C(=O)COCC(=O)Nc2cccc3c2C(=O)N(C2CCC(=O)NC2=O)C3=O)CC1` (stereo not shown) [Compound 29] the IC50 was > 10 µM.
`Nc1nnc(-c2ccccc2O)cc1N1CCN(C(=O)CCCCCCC(=O)Nc2cccc3c2C(=O)N(C2CCC(=O)NC2=O)C3=O)CC1` (stereo not shown) [Compound 30] was tested, and the IC50 was > 10 µM.
In the case of `Cc1ncsc1-c1ccc(CNC(=O)[C@@H]2C[C@@H](O)CN2C(=O)[C@@H](NC(=O)COCC(=O)N2CCN(c3cc(-c4ccccc4O)nnc3N)CC2)C(C)(C)C)cc1` [Compound 31], the IC50 is reported as > 10 µM.
In the case of `Cc1ncsc1-c1ccc(CNC(=O)[C@@H]2C[C@@H](O)CN2C(=O)[C@@H](NC(=O)CCCC(=O)N2CCN(c3cc(-c4ccccc4O)nnc3N)CC2)C(C)(C)C)cc1` [Compound 33], the IC50 is reported as > 10 µM.
For `Cc1ncsc1-c1ccc(CNC(=O)[C@@H]2C[C@@H](O)CN2C(=O)[C@@H](NC(=O)CCCCCCC(=O)N2CCN(c3cc(-c4ccccc4O)nnc3N)CC2)C(C)(C)C)cc1` [Compound 34], the IC50 was > 10 µM.
An IC50 of 1 to 10 µM was found for `Cc1ncsc1-c1ccc(CNC(=O)[C@@H]2C[C@@H](O)CN2C(=O)[C@@H](NC(=O)CCCCCCCCCC(=O)N2CCN(c3cc(-c4ccccc4O)nnc3N)CC2)C(C)(C)C)cc1` [Compound 35] in this work.
`Nc1nnc(-c2ccccc2O)cc1N1CCN(CC(=O)Nc2cccc3c2CN(C2CCC(=O)NC2=O)C3=O)CC1` (stereo not shown) [Compound 42] was tested, and the IC50 was > 10 µM.
For `COc1ccccc1-c1cc(N2CCN(CC(=O)N[C@H](C(=O)N3C[C@H](O)C[C@H]3C(=O)N[C@@H](C)c3ccc(-c4scnc4C)cc3)C(C)(C)C)CC2)c(N)nn1` [Compound 45], the IC50 was > 10 µM.
In the case of `Cc1ncsc1-c1ccc([C@H](C)NC(=O)[C@@H]2C[C@@H](O)CN2C(=O)[C@@H](NC(=O)CN2CCN(c3cc(-c4ccccc4)nnc3N)CC2)C(C)(C)C)cc1` [Compound 46], the IC50 is reported as > 10 µM.
An IC50 of 1 to 10 µM was found for `Cc1ncsc1-c1ccc([C@H](C)NC(=O)[C@@H]2C[C@@H](O)CN2C(=O)[C@@H](NCC(=O)N2CCN(c3cc(-c4ccccc4O)nnc3N)CC2)C(C)(C)C)cc1` [Compound 49, (2S,4R)-1-((S)-2-((2-(4-(3-amino-6-(2-hydroxyphenyl)pyridazin-4-yl)piperazin-1-yl)-2-oxoethyl)amino)-3,3-dimethylbutanoyl)-4-hydroxy-N—((S)-1-(4-(4-methylthiazol-5-yl)phenyl)ethyl)pyrrolidine-2-carboxamide] in this work.
In the case of `Cc1ncsc1-c1ccc([C@H](C)NC(=O)[C@@H]2C[C@@H](O)CN2C(=O)[C@@H](NC(=O)CN2CCN(c3cc(Cl)nnc3N)CC2)C(C)(C)C)cc1` [Compound 50, (2S,4R)-1-((S)-2-(2-(4-(3-amino-6-chloropyridazin-4-yl)piperazin-1-yl)acetamido)-3,3-dimethylbutanoyl)-4-hydroxy-N—((S)-1-(4-(4-methylthiazol-5-yl)phenyl)ethyl)pyrrolidine-2-carboxamide], the IC50 is reported as > 10 µM.
For `Cc1ncsc1-c1ccc(CNC(=O)[C@@H]2C[C@@H](O)CN2C(=O)[C@@H](NC(=O)COCCN2CCN(c3cc(-c4ccccc4O)nnc3N)CC2)C(C)(C)C)cc1` [Compound 53, (2S,4R)-1-((S)-2-(2-(2-(4-(3-amino-6-(2-hydroxyphenyl)pyridazin-4-yl)piperazin-1-yl)ethoxy)acetamido)-3,3-dimethylbutanoyl)-4-hydroxy-N-(4-(4-methylthiazol-5-yl)benzyl)pyrrolidine-2-carboxamide], the IC50 was > 10 µM.
For `Cc1ncsc1-c1ccc([C@H](C)NC(=O)[C@@H]2C[C@@H](O)CN2C(=O)[C@@H](NC(=O)CN2CCN(c3cc(-c4ccccc4O)nnc3O)CC2)C(C)(C)C)cc1` [Compound 54, (2S,4R)-4-hydroxy-1-((S)-2-(2-(4-(3-hydroxy-6-(2-hydroxyphenyl)pyridazin-4-yl)piperazin-1-yl)acetamido)-3,3-dimethylbutanoyl)-N—((S)-1-(4-(4-methylthiazol-5-yl)phenyl)ethyl)pyrrolidine-2-carboxamide], the IC50 was > 10 µM.
With `Cc1ncsc1-c1ccc([C@H](C)NC(=O)[C@@H]2C[C@@H](O)CN2C(=O)[C@@H](NC(=O)CN2CCN(c3ccnnc3N)CC2)C(C)(C)C)cc1` [Compound 67, (2S,4R)-1-((S)-2-(2-(4-(3-aminopyridazin-4-yl)piperazin-1-yl)acetamido)-3,3-dimethylbutanoyl)-4-hydroxy-N—((S)-1-(4-(4-methylthiazol-5-yl)phenyl)ethyl)pyrrolidine-2-carboxamide] the IC50 was > 10 µM.
